The text below walks through data of PubChem BioAssay AID1259407 (Chemical Carcinogenesis Research Information System (CCRIS), 2018).

Calls of active or inactive are those of the source. The rule behind the calls is not given here.

The test system of this data set is CCRIS mutagenicity, Ames/micronucleus/aberration tests. The data set is described as follows: CCRIS mutagenicity studies.
Where [1] appears, read: Test System: AMES SALMONELLA TYPHIMURIUM, Strain/Indicator: TA98, Metabolic Activation: NONE, Method: STANDARD PLATE.
[2] abbreviates: Test System: AMES SALMONELLA TYPHIMURIUM, Strain/Indicator: TA98, Metabolic Activation: RAT, LIVER, S-9, AROCLOR 1254, Method: STANDARD PLATE.
The mark [3] stands for this setting: Test System: AMES SALMONELLA TYPHIMURIUM, Strain/Indicator: TA100, Metabolic Activation: NONE, Method: STANDARD PLATE.
[4] abbreviates: Test System: AMES SALMONELLA TYPHIMURIUM, Strain/Indicator: TA100, Metabolic Activation: RAT, LIVER, S-9, AROCLOR 1254, Method: STANDARD PLATE.
[5] abbreviates: Test System: AMES SALMONELLA TYPHIMURIUM, Strain/Indicator: TA98, Metabolic Activation: NONE, Method: PREINCUBATION
Where [6] appears, read: Test System: AMES SALMONELLA TYPHIMURIUM, Strain/Indicator: TA98, Metabolic Activation: RAT LIVER S-9, PHENOBARBITAL AND BETA-NAPHTHOFLAVONE, Method: PREINCUBATION
The mark [7] stands for this setting: Test System: AMES SALMONELLA TYPHIMURIUM, Strain/Indicator: TA100, Metabolic Activation: NONE, Method: PREINCUBATION
Setting [8] is: Test System: AMES SALMONELLA TYPHIMURIUM, Strain/Indicator: TA100, Metabolic Activation: RAT LIVER S-9, PHENOBARBITAL AND BETA-NAPHTHOFLAVONE, Method: PREINCUBATION
Setting [9] is: Test System: AMES SALMONELLA TYPHIMURIUM, Strain/Indicator: TA102, Metabolic Activation: NONE, Method: PREINCUBATION
Setting [10] is: Test System: AMES SALMONELLA TYPHIMURIUM, Strain/Indicator: TA102, Metabolic Activation: RAT LIVER S-9, PHENOBARBITAL AND BETA-NAPHTHOFLAVONE, Method: PREINCUBATION
Where [11] appears, read: Test System: AMES SALMONELLA TYPHIMURIUM, Strain/Indicator: TA104, Metabolic Activation: NONE, Method: PREINCUBATION
Setting [12] is: Test System: AMES SALMONELLA TYPHIMURIUM, Strain/Indicator: TA104, Metabolic Activation: RAT LIVER S-9, PHENOBARBITAL AND BETA-NAPHTHOFLAVONE, Method: PREINCUBATION
Setting [13] is: Test System: AMES SALMONELLA TYPHIMURIUM, Strain/Indicator: TA1535, Metabolic Activation: NONE, Method: PREINCUBATION
The mark [14] stands for this setting: Test System: AMES SALMONELLA TYPHIMURIUM, Strain/Indicator: TA1535, Metabolic Activation: RAT LIVER S-9, PHENOBARBITAL AND BETA-NAPHTHOFLAVONE, Method: PREINCUBATION
Where [15] appears, read: Test System: AMES SALMONELLA TYPHIMURIUM, Strain/Indicator: TA1537, Metabolic Activation: NONE, Method: PREINCUBATION
Setting [16] is: Test System: AMES SALMONELLA TYPHIMURIUM, Strain/Indicator: TA1537, Metabolic Activation: RAT LIVER S-9, PHENOBARBITAL AND BETA-NAPHTHOFLAVONE, Method: PREINCUBATION
The mark [17] stands for this setting: Test System: E.COLI, Strain/Indicator: WP2UVRA/PKM101, Metabolic Activation: NONE, Method: PREINCUBATION
Setting [18] is: Test System: E.COLI, Strain/Indicator: WP2UVRA/PKM101, Metabolic Activation: RAT LIVER S-9, PHENOBARBITAL AND BETA-NAPHTHOFLAVONE, Method: PREINCUBATION
[19] abbreviates: Test System: E.COLI, Strain/Indicator: WP2UVRA, Metabolic Activation: NONE, Method: PREINCUBATION
Where [20] appears, read: Test System: E.COLI, Strain/Indicator: WP2UVRA, Metabolic Activation: RAT LIVER S-9, PHENOBARBITAL AND BETA-NAPHTHOFLAVONE, Method: PREINCUBATION
The mark [21] stands for this setting: Test System: Mouse lymphoma, Strain/Indicator: L5178Y (tk+/tk-), Metabolic Activation: None, Method: Suspension/plate.
The mark [22] stands for this setting: Test System: Mouse lymphoma, Strain/Indicator: L5178Y (tk+/tk-), Metabolic Activation: Rat, Liver, S-9, Aroclor 1254, Method: Suspension/plate.

For the compound `CCC(CCC(C)O)COC(=O)CCCCC(=O)O` (configuration not stated), the mutagenic call by setting is: (Test System: AMES SALMONELLA TYPHIMURIUM, Strain/Indicator: TA97, Metabolic Activation: NONE, Method: STANDARD PLATE) “inactive; negative”; (Test System: AMES SALMONELLA TYPHIMURIUM, Strain/Indicator: TA97, Metabolic Activation: RAT, LIVER, S-9, AROCLOR 1254, Method: STANDARD PLATE) “inactive; negative”; (Test System: AMES SALMONELLA TYPHIMURIUM, Strain/Indicator: TA97, Metabolic Activation: RAT, LIVER, S-9, DI(2-ETHYLHEXYL)PHTHALATE, Method: STANDARD PLATE) “inactive; negative”; under setting [1], “inactive; negative”; under setting [2], “inactive; negative”; (Test System: AMES SALMONELLA TYPHIMURIUM, Strain/Indicator: TA98, Metabolic Activation: RAT, LIVER, S-9, DI(2-ETHYLHEXYL)PHTHALATE, Method: STANDARD PLATE) “inactive; negative”. In addition, the mutagenic call reads like this: under setting [3], “inactive; negative”; under setting [4], “inactive; negative”; (Test System: AMES SALMONELLA TYPHIMURIUM, Strain/Indicator: TA100, Metabolic Activation: RAT, LIVER, S-9, DI(2-ETHYLHEXYL)PHTHALATE, Method: STANDARD PLATE) “inactive; negative”; (Test System: AMES SALMONELLA TYPHIMURIUM, Strain/Indicator: TA102, Metabolic Activation: NONE, Method: STANDARD PLATE) “inactive; negative”; (Test System: AMES SALMONELLA TYPHIMURIUM, Strain/Indicator: TA102, Metabolic Activation: RAT, LIVER, S-9, AROCLOR 1254, Method: STANDARD PLATE) “inactive; negative”; (Test System: AMES SALMONELLA TYPHIMURIUM, Strain/Indicator: TA102, Metabolic Activation: RAT, LIVER, S-9, DI(2-ETHYLHEXYL)PHTHALATE, Method: STANDARD PLATE) “inactive; negative”.
Consider `CCOCCOC(C)=O`, for which the mutagenic call under setting [5] is “inactive; negative”; the mutagenic call under setting [6] was “inactive; negative”; the mutagenic call under setting [7] was “inactive; negative”; the mutagenic call under setting [8] was “inactive; negative”; the mutagenic call under setting [9] was “inactive; negative”; the mutagenic call under setting [10] is “inactive; negative”. Besides, the mutagenic call was “inactive; negative” under setting [11]; “inactive; negative” under setting [12]; “inactive; negative” under setting [13]; “inactive; negative” under setting [14]; “inactive; negative” under setting [15]; “inactive; negative” under setting [16]. The mutagenic call by setting is: under setting [17], “inactive; negative”; under setting [18], “inactive; negative”; under setting [19], “inactive; negative”; under setting [20], “inactive; negative”.
In the case of `COc1cc2c(cc1O)CCN[C@]21CS[C@@H]2c3c(OC(C)=O)c(C)c4c(c3[C@H](COC1=O)N1[C@@H]2[C@H]2c3c(cc(C)c(OC)c3O)C[C@@H]([C@@H]1O)N2C)OCO4`, the mutagenic call is, setting by setting: (Test System: AMES SALMONELLA TYPHIMURIUM, Strain/Indicator: TA98, Metabolic Activation: HAMSTER, LIVER, S-9, AROCLOR 1254, Method: STANDARD PLATE) “active; positive”; under setting [1], “inactive; negative”; under setting [2], “active; positive”; (Test System: AMES SALMONELLA TYPHIMURIUM, Strain/Indicator: TA100, Metabolic Activation: HAMSTER, LIVER, S-9, AROCLOR 1254, Method: STANDARD PLATE) “inactive; negative”; under setting [3], “inactive; negative”; under setting [4], “inactive; negative”. Besides, the mutagenic call was “active; positive” under setting [21] and “active; positive” under setting [22].
Consider `C=C(C)C(=O)OCCN(C)C`, for which the mutagenic call runs as follows: under setting [5], “inactive; negative”; under setting [6], “inactive; negative”; under setting [7], “inactive; negative”; under setting [8], “inactive; negative”; under setting [9], “inactive; negative”; under setting [10], “inactive; negative”. The mutagenic call under setting [11] was “inactive; negative”; the mutagenic call under setting [12] was “active; positive”; the mutagenic call under setting [13] is “inactive; negative”; the mutagenic call under setting [14] was “inactive; negative”; the mutagenic call under setting [15] is “inactive; negative”; the mutagenic call under setting [16] was “inactive; negative”. In addition, the mutagenic call reads like this: under setting [17], “inactive; negative”; under setting [18], “inactive; negative”; under setting [19], “inactive; negative”; under setting [20], “inactive; negative”.
For `Clc1ccccc1C(c1ccccc1)C(c1ccccc1)c1ccccc1Cl` (configuration not stated), the mutagenic call reads like this: under setting [21], “inactive; negative”; under setting [22], “active; equivocal (previous evaluation positive)”.
On to `CC1CCC(NC(=O)N(CCCl)N=O)CC1` (configuration not stated), for which the mutagenic call is “active; positive” (Test System: AMES SALMONELLA TYPHIMURIUM, Strain/Indicator: G46, Metabolic Activation: NONE); “active; positive” under setting [3]; “active; positive” under setting [4]; “active; positive” (Test System: AMES SALMONELLA TYPHIMURIUM, Strain/Indicator: TA1535, Metabolic Activation: NONE).
As for `Cc1occc(=O)c1O`, the mutagenic call (End Point: IN VIVO MICRONUCLEUS, Test System: BONE MARROW POLYCHROMATIC ERYTHROCYTES, Species: MOUSE, Strain/Sex: DDY/MALE, Route: IP) was “active; positive”; the mutagenic call (Test System: AMES SALMONELLA TYPHIMURIUM, Strain/Indicator: TA92, Metabolic Activation: NONE, Method: STANDARD PLATE) is “inactive; negative”; the mutagenic call (Test System: AMES SALMONELLA TYPHIMURIUM, Strain/Indicator: TA97, Metabolic Activation: NONE, Method: PREINCUBATION) is “inactive; negative”; the mutagenic call (Test System: AMES SALMONELLA TYPHIMURIUM, Strain/Indicator: TA97, Metabolic Activation: RAT, LIVER, S-9, AROCLOR 1254, Method: PREINCUBATION) is “inactive; negative”; the mutagenic call under setting [1] was “inactive; negative”; the mutagenic call under setting [3] was “inactive; negative”. In addition, the mutagenic call was “inactive; negative” under setting [9]; “inactive; negative” (Test System: AMES SALMONELLA TYPHIMURIUM, Strain/Indicator: TA102, Metabolic Activation: RAT, LIVER, S-9, AROCLOR 1254, Method: PREINCUBATION); “inactive; negative” (Test System: AMES SALMONELLA TYPHIMURIUM, Strain/Indicator: TA104, Metabolic Activation: NONE, Method: STANDARD PLATE).
